# Calls of active or inactive are those of the source.
# Assays:
# [1] = Luminescence Cell-Based Dose Retest to Confirm Inhibitors of Cancer Stem Cells. [Related pubchem assays (depositor defined):AID2717, AID2721]; assay type: functional; settings: Homo sapiens
# [2] = biological target: T1, Rac GTPase-activating protein 1 (Homo sapiens, UniProt Q9H0H5); assay: blockers of MgcRacGAP-driven Rac1 GTP hydrolysis – biochemical, ADP Hunter fluorescence, primary and confirmatory, confirmation (AID 624330); assay type: functional
# T1 sequence (Q9H0H5 whole entry): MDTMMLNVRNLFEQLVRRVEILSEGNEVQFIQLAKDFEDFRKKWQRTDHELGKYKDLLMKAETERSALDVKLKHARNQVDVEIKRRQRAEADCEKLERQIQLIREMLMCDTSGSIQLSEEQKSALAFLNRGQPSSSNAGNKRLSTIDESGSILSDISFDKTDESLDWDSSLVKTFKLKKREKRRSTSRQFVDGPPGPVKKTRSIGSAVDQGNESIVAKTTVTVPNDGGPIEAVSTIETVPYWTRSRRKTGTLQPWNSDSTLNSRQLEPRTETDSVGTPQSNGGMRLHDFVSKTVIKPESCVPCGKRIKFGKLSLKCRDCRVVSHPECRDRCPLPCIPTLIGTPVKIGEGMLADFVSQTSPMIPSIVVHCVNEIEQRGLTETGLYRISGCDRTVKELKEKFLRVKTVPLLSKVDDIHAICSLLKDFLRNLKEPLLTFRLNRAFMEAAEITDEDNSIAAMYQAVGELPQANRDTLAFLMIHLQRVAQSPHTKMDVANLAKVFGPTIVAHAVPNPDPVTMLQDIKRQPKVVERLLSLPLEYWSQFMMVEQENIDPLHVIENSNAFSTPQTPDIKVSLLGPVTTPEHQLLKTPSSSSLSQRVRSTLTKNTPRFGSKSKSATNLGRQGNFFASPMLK
# Cytochrome P450 2C19 = Cytochrome P450 2C19 (Homo sapiens, UniProt P33261); assay: Cytochrome panel assay with activity outcomes. Panel member name: p450-cyp2c19 Compounds with AC50 equal or less than 10 uM are considered active; assay type: functional
# Chain of Cytochrome P450 2C19 (P33261 whole entry): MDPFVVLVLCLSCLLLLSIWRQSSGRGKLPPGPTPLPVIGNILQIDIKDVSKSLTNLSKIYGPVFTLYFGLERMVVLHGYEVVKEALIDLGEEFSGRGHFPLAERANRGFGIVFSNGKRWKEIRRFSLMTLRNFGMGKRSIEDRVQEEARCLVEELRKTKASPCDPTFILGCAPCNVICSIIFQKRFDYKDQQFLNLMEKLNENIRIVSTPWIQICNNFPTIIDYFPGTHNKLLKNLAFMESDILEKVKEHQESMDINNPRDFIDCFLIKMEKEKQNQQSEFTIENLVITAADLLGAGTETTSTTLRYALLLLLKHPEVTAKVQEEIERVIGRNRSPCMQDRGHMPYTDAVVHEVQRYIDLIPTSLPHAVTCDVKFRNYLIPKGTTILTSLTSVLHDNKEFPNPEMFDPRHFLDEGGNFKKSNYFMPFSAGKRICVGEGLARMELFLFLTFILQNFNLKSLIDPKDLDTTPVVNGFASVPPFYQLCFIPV
# Cytochrome P450 3A4 = Cytochrome P450 3A4 (Homo sapiens, UniProt P08684);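 note: CYP3A4 tested as one member of a cytochrome P450 panel screen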
# Chain of Cytochrome P450 3A4 (P08684 whole entry): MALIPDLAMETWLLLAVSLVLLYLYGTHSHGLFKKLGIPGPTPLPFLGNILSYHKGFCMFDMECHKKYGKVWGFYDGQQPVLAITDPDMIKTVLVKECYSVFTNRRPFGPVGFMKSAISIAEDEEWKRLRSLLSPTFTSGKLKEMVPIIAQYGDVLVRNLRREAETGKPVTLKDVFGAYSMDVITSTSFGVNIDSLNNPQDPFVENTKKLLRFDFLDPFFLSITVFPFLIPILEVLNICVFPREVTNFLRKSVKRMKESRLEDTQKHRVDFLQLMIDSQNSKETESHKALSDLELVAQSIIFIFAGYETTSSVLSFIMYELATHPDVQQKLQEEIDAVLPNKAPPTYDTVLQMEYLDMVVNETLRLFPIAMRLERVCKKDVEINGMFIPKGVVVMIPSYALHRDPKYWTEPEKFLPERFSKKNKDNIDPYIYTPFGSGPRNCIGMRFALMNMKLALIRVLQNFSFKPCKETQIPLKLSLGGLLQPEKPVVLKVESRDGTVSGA
# [3] = viability of uninfected HEp-2 cells – cell-based, HTS, cytotoxicity control for RSV inhibitor project, dose response (AID 2410); assay type: functional; settings: human respiratory syncytial virus
# [4] = Luminescence Cell-Based Dose Response HTS to Identify Activators of Luciferase Translation or Activity in H4 […] Cells. [Related pubchem assays: 1829 (Project Summary), 1814 (Primary HTS)]; assay type: functional
# H4 = assay: Luminescence Cell-Based Dose Response HTS to Identify Activators of 5'UTR Stem-Loop Driven Prion Protein mRNA Translation in H4 Neuroglioblastoma Cells. [Related pubchem assays: 1829 (Project Summary), 1814 (Primary HTS)]; assay type: functional; settings: Homo sapiens
# [5] = Luminescence Cell-Based Dose Confirmation HTS to Identify Activators of 5'UTR Stem-Loop Driven Alpha-Synuclein mRNA Translation in H4 Neuroglioblastoma Cells. [Related pubchem assays: 1829 (Project Summary), 1814 (Primary HTS)]; assay type: functional
# Cytochrome P450 1A2 = biological target: T2, Cytochrome P450 1A2 (Homo sapiens, UniProt P05177);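 note: PubChem cytochrome P450 panel assay, CYP1A2 panel member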
# T2 sequence (P05177 whole entry): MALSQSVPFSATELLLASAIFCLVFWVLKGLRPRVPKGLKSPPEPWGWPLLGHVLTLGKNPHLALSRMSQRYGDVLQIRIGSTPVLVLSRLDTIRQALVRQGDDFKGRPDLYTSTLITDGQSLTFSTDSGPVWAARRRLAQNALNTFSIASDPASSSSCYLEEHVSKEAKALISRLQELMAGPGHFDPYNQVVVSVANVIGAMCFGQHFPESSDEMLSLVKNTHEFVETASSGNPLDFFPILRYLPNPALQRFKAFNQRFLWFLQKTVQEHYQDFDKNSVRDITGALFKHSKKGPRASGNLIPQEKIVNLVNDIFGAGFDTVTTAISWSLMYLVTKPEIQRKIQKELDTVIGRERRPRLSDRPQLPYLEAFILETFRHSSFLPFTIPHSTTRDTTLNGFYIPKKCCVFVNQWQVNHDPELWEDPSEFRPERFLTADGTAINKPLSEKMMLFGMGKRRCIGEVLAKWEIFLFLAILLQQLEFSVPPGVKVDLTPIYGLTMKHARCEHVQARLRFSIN
# [6] = Trypanosoma cruzi growth suppression in host cells – NIH3T3 host cells, beta-gal luminescence, confirmation (AID 2044); assay type: functional, cell-based;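 note: intracellular parasites grown in NIH/3T3 mouse fibroblasts as host cells; luminescent beta-galactosidase reporter signal from transgenic T. cruzi replicating inside host cells; inhibitors lower the luminescence signal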
# [7] = NIH3T3 cell viability loss – ATP luminescence, mouse fibroblasts, counter-screen, dose response (AID 2010); assay type: functional, cell-based;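 note: cells exposed to compound for about 90 hours before reading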
# [8] = biological target: T3, Corticotropin-releasing factor receptor 2/Corticotropin-releasing factor-binding protein (Homo sapiens, UniProt P24387+Q13324); assay: activators of CRF receptor 2 with binding protein – uHTS hits, confirmation (AID 602473); assay type: functional; settings: read-out: EC50_Mean
# T3 sequence (Q13324 whole entry): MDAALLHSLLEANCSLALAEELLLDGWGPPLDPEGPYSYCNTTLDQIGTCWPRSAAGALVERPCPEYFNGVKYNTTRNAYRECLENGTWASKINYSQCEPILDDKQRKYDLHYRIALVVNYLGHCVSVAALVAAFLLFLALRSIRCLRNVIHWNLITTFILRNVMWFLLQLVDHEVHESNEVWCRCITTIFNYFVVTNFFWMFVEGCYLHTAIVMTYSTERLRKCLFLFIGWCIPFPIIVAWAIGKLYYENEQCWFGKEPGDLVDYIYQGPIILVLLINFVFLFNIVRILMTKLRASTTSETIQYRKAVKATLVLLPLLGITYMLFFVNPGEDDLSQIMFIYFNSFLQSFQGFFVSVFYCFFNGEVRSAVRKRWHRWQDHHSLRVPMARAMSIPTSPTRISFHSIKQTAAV
# T3 sequence (P24387 whole entry): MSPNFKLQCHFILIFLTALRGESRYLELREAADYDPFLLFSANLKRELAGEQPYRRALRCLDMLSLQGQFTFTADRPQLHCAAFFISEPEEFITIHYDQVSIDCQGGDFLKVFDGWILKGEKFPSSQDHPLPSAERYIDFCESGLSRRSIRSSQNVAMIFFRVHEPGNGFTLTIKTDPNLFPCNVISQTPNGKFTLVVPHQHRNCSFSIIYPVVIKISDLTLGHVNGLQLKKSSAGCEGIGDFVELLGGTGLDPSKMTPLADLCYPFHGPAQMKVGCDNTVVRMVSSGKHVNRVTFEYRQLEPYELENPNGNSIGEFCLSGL
# [9] = test system: Streptococcus sp. 'group A'; assay: Streptococcus pyogenes SK(-)GAS viability under kanamycin – luminescence, BacTiterGlo, confirmation, counter-screen for streptokinase expression inhibitor project, dose response (AID 1900); assay type: functional, organism-based
# Streptococcus = assay: GAS UMAA2166 growth inhibition – luminescence, BacTiterGlo, counter-screen for streptokinase expression inhibitor project, dose response (AID 1915); assay type: functional, organism-based;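 note: potency for reduction of bacterial viability or growth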
compound,measurement,setting,value
Cc1nnc(-c2ccc(Oc3ccc(Cl)cc3)c([N+](=O)[O-])c2)o1,AC50,[1],< 0.16 µM (active)
CCOc1cc(/C=C2\C(=O)N(Cc3ccco3)C(C)=C2C(=O)OC)ccc1O,IC50,[2],69.9 µM (active)
CCc1ccccc1OC[C@@H](O)CN[C@H]1CCCc2ccccc21,AC50,Cytochrome P450 2C19; read-out: AC50,2 µM (inconclusive)
CCNC(=O)CSc1nnc(C2CC2)n1-c1ccccc1,AC50,Cytochrome P450 2C19; read-out: AC50,22.4 µM (inconclusive)
same,AC50,Cytochrome P450 3A4,28.2 µM (inconclusive)
COc1ccc(/C=C2\CCCC3C2=NN(C(=O)c2ccco2)C3c2ccc(OC)c(OC)c2)cc1OC (configuration not stated),AC50,Cytochrome P450 2C19; read-out: AC50,31.6 µM (inconclusive)
CN(C)C(=O)Oc1cc(OC(=O)N(C)C)cc([C@@H](O)CNC(C)(C)C)c1,AC50,Cytochrome P450 2C19,inconclusive
CCOc1ccc(Cl)cc1CNCCNCCO.Cl,AC50,Cytochrome P450 2C19,inconclusive
COc1ccc(Cc2nc3ccc(C(=O)NCCc4cccc(C)n4)cc3o2)cc1,CC50,[3],19.7 µM (active)
Cc1ccc(NC(=O)c2ccc(NCCCN3CCOCC3)c([N+](=O)[O-])c2)cc1Cl,CC50,[3],12.8 µM (active)
Cc1cccc(N(C)Cc2nnc(-c3cccc(Br)c3)o2)c1,CC50,[3],33.1 µM (active)
C=C1CCO[C@@]2([C@H](O)[C@@](C)(O)CO)NC(=O)[C@]1(O)NC2=O,AC50,Cytochrome P450 2C19,inconclusive
Cc1cnn(CCC(=O)NN=C(S)Nc2ccc(F)cc2)c1,AC50,Cytochrome P450 2C19; read-out: AC50,17.8 µM (inconclusive)
same,AC50,Cytochrome P450 3A4,17.8 µM (inconclusive)
COC(=O)[C@H](CCSC)NC(=O)NCc1ccccc1F,AC50,Cytochrome P450 2C19; read-out: AC50,0.0158 µM (inconclusive)
CS(=O)(=O)N1CCN(C2C3CC4CC(C3)CC2C4)CC1 (configuration not stated),IC50,[2],152 µM (active)
Oc1ccc2ccccc2c1Br,IC50,[2],20.3 µM (active)
Cc1nn(-c2ccc3ccccc3c2)c(=O)c2ccccc12,EC50,[4],0.213 µM (active)
same,EC50,H4,29.7 µM (active)
same,EC50,[5],< 0.1 µM (active)
O=C1OC(c2ccccc2)=N/C1=C\N1CCCCC1,EC50,[4],0.374 µM (active)
same,EC50,H4,> 120 µM (not active)
same,EC50,[5],0.176 µM (active)
COCCn1c(=O)c(-c2cccc(C#N)c2)nc2cnc(Oc3ccc(OC)cc3)nc21,AC50,Cytochrome P450 1A2,12.6 µM (inconclusive)
same,AC50,Cytochrome P450 2C19; read-out: AC50,39.8 µM (inconclusive)
COC(=O)c1cccc(Nc2cc(C)nc(-c3ccccc3O)n2)c1,EC50,[6],2.74 µM (active)
same,EC50,[7],7.5 µM (active)
same,AC50,[1],1.75 µM (active)
Cc1ccc(S(=O)(=O)N[C@H](C(=O)OCC(=O)N2N=C(c3ccc(Cl)cc3)CC2c2ccco2)C(C)C)cc1 (some centres not stated),CC50,[3],> 50 µM (active)
same,EC50,[8],> 53 µM (inactive)
COc1ccc(-c2cn(CCc3c[nH]c4ccccc34)nn2)cc1,AC50,[1],2.86 µM (active)
O=C(CN1CCN(c2ncccn2)CC1)N1CCCC1,IC50,[2],176 µM (active)
CC1CCN(c2nc(-c3cccnc3)nc3scc(-c4ccccc4)c23)CC1,AC50,[1],1.36 µM (active)
Cc1ccc2nc(NC(=O)C3CCCN(S(=O)(=O)c4c[nH]cn4)C3)sc2c1 (configuration not stated),EC50,[4],23.4 µM (active)
same,EC50,H4,20.8 µM (active)
same,EC50,[5],30.4 µM (active)
Cc1ccc(C)c(Cc2c(C)nc3c(C(=O)NCc4ccc5c(c4)OCO5)cnn3c2C)c1,EC50,[6],1.61 µM (active)
same,EC50,[7],> 60 µM (not active)
same,AC50,[1],4.98 µM (active)
CCCCCn1cc[n+](C2=C([N-]S(=O)(=O)c3ccc(Br)cc3)C(=O)c3ccccc3C2=O)c1,EC50,[9],4.17 µM (active)
same,EC50,Streptococcus,6.33 µM (active)
Cc1cc(C)c2nc(N3CCCC(C(=O)N4CCN(c5ncccn5)CC4)C3)sc2c1 (configuration not stated),AC50,[1],5.98 µM (active)
Cc1ccc(C(=O)Nc2cc(C(C)C)c(O)c(C(C)C)c2)cc1,CC50,[3],32 µM (active)
O=C(/C=C/c1ccccc1)OCCNC1=NS(=O)(=O)c2ccccc21,CC50,[3],36.4 µM (active)
CCOC(=O)c1ccc2[nH]c3c(c2c1)CCCC3NC=O (configuration not stated),CC50,[3],36 µM (active)
Nc1c(-c2ccccc2)cnn1-c1cccc(C(F)(F)F)c1,EC50,[4],56.7 µM (active)
same,EC50,H4,8 µM (active)
same,EC50,[5],0.538 µM (active)
COc1ccc(Oc2ncc3nc(-c4ccccc4)c(=O)n(C4CC4)c3n2)cc1,AC50,Cytochrome P450 2C19; read-out: AC50,31.6 µM (inconclusive)
C=C[C@@H]1c2cc(C)ccc2N(S(=O)(=O)c2ccc(C)cc2)[C@H](c2ccc(OC(C)=O)cc2)C1(C#N)C#N,AC50,[1],0.804 µM (active)
COc1ccc(CCNC(=O)Cn2cnc3c2c(=O)n(C)c(=O)n3C)cc1OC,AC50,Cytochrome P450 1A2,3.16 µM (inconclusive)
same,AC50,Cytochrome P450 2C19,inconclusive
Cc1cccc(NC(=O)CSc2nnnn2C)n1,AC50,Cytochrome P450 2C19; read-out: AC50,39.8 µM (inconclusive)
CN(C)/N=C/C=C1\CCC/C(=C\c2ccc(F)c(F)c2)C1=O,AC50,[1],8.22 µM (active)
COc1cc(/C=N/Nc2nc(C)cc(O)n2)ccc1O,IC50,[2],23.9 µM (active)
CCOc1cc(/C=N/N2CCN(Cc3ccccc3)CC2)ccc1O,IC50,[2],86.7 µM (active)
CCCn1c(=O)c(C(=O)N/N=C/c2ccc(F)cc2)c(O)c2ccccc21,EC50,[9],1.99 µM (active)
same,EC50,Streptococcus,3.31 µM (active)
O/N=C1\CCCc2ccc(Cl)cc21,CC50,[3],19.5 µM (active)
C/C(=N\NC(=O)c1ccccc1C)c1ccc(NC(=O)c2cccs2)cc1,AC50,Cytochrome P450 1A2,22.4 µM (inconclusive)
same,AC50,Cytochrome P450 2C19; read-out: AC50,31.6 µM (inconclusive)
CCCCNCC(O)(c1ccc(Cl)cc1)c1ccc(Cl)cc1,CC50,[3],7.11 µM (active)

# — ChEMBL document CHEMBL1201862, “PubChem BioAssay data set” (2004)
